In ChEMBL document CHEMBL1141697, “Promising core structure for nuclear receptor ligands: design and synthesis of novel estrogen receptor ligands based on diphenylamine skeleton” (Bioorg Med Chem Lett, 2008):
Activity calls are given as the source filed them. No cut-off for these calls is given here.

Legend:
[1] = target: T1, Estrogen receptor (Homo sapiens) (UniProt P03372); assay: Displacement of [2,4,6,7-3H]17beta-estradiol from human recombinant ERalpha receptor by liquid scintillation counter relative to 17-beta-estradiol
T1 sequence (whole entry): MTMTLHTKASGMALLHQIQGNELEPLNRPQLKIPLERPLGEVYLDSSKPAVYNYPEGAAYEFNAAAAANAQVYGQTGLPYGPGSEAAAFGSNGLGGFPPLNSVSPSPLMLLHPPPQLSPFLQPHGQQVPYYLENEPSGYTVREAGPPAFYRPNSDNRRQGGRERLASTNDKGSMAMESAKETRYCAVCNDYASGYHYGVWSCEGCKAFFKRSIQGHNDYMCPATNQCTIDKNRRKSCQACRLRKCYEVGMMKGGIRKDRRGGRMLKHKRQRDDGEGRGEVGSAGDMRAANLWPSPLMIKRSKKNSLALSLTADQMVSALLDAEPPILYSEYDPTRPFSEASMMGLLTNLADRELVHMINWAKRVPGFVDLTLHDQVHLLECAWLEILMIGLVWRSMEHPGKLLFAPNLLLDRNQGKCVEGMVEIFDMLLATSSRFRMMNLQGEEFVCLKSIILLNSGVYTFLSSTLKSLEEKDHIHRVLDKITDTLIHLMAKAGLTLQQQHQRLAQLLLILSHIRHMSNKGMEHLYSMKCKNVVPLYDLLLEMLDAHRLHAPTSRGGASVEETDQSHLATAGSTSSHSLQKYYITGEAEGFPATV

Homo sapiens = species: Homo sapiens; assay: Selectivity ratio of relative binding affinity for human recombinant ERalpha receptor to relative binding affinity for human recombinant ERbeta receptor
MCF7 [2] = assay: Antiestrogenic activity in human MCF7 cells; assay type: functional, cell-based
MCF7 [3] = assay: Estrogenic activity in human MCF7 cells assessed as cell proliferation after 6 days by WST8 assay relative to 17-beta-estradiol; assay type: functional
[4] = target: Estrogen receptor beta (Homo sapiens) (UniProt Q92731); assay: Displacement of [2,4,6,7-3H]17beta-estradiol from human recombinant ERbeta receptor by liquid scintillation counter relative to 17-beta-estradiol
MCF7 [5] = assay: cells; conditions: Homo sapiens, MCF7, 144 h
MCF7 [6] = assay: Estrogenic activity in human MCF7 cells assessed as cell proliferation after 6 days by WST8 assay

Sequence of Estrogen receptor beta (Homo sapiens) (Q92731 whole entry): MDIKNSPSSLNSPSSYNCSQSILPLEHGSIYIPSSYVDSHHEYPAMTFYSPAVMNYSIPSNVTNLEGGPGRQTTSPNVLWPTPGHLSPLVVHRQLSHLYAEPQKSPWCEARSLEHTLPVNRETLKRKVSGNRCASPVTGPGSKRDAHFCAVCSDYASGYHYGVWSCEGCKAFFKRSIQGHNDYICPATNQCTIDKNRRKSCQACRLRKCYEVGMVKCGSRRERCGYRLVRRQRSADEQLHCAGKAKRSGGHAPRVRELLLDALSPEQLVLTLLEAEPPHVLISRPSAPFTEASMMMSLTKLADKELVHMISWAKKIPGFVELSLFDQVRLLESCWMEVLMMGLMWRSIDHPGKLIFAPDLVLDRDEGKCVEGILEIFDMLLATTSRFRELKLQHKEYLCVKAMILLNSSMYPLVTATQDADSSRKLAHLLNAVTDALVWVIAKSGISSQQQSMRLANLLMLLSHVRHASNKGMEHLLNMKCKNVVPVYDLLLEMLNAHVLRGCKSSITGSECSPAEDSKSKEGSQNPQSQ

Compound | relative binding affinity (RBA) [1] | Ratio (Homo sapiens) | Activity (MCF7 [2]) | Activity (MCF7 [3]) | relative binding affinity (RBA) [4] | EC50 (MCF7 [5]) [nM] | Activity (MCF7 [6])
O=S(=O)(c1ccc(O)cc1)N(c1ccc(O)cc1)c1ccc(O)cc1 | 0.352 | 0.011 | inactive | 99 | 0.004 | 12 | –
CCCCCCN(c1ccc(O)cc1)c1ccc(O)cc1 | 0.153 | 0.667 | inactive | 130 | 0.102 | 11 | –
Oc1ccc(N(Cc2ccccc2)c2ccc(O)cc2)cc1 | 0.655 | 27.7 | inactive | 85 | 18.1 | 67 | –
O=C(c1ccccc1)N(c1ccc(O)cc1)c1ccc(O)cc1 | 0.193 | 6.52 | inactive | 114 | 1.26 | 14 | –
Oc1ccc(N(c2ccc(O)cc2)C2CCCCC2)cc1 | 1.13 | 3.8 | inactive | 64 | 4.3 | 590 | –
Oc1ccc(N(CC2CC2)c2ccc(O)cc2)cc1 | 0.054 | – | inactive | – | < 0.001 | – | –
CC(C)N(c1ccc(O)cc1)c1ccc(O)cc1 | < 0.001 | – | inactive | – | < 0.001 | – | inactive
O=C(c1ccc(O)cc1)N(c1ccc(O)cc1)c1ccc(O)cc1 | 0.336 | 0.188 | inactive | 240 | 0.063 | 5.2 | –
CS(=O)(=O)N(c1ccc(O)cc1)c1ccc(O)cc1 | < 0.001 | – | inactive | 213 | < 0.001 | 6900 | –
CC(C)CCN(c1ccc(O)cc1)c1ccc(O)cc1 | 0.129 | 18.1 | inactive | 31 | 2.34 | 570 | –
CC(=O)N(c1ccc(O)cc1)c1ccc(O)cc1 | < 0.001 | – | inactive | 114 | < 0.001 | 43000 | –
Oc1ccc(CN(c2ccc(O)cc2)c2ccc(O)cc2)cc1 | 4.26 | 0.951 | inactive | 42 | 4.05 | 370 | –
Oc1ccc(Nc2ccc(O)cc2)cc1 | < 0.001 | – | inactive | – | < 0.001 | – | inactive
Oc1ccc(N(c2ccccc2)c2ccc(O)cc2)cc1 | 1.29 | 1.48 | inactive | 87 | 1.91 | 120 | –
Oc1ccc(N(CC2CCCCC2)c2ccc(O)cc2)cc1 | 0.89 | 7.52 | inactive | 109 | 6.7 | 210 | –
O=S(=O)(c1ccccc1)N(c1ccc(O)cc1)c1ccc(O)cc1 | 0.04 | – | inactive | 98 | < 0.001 | 63 | –
CN(c1ccc(O)cc1)c1ccc(O)cc1 | < 0.001 | – | inactive | – | < 0.001 | – | inactive
Oc1ccc(N(CCC2CCCCC2)c2ccc(O)cc2)cc1 | 3.64 | 1.88 | inactive | 71 | 6.84 | 500 | –
Oc1ccc(N(CC23CC4CC(CC(Br)(C4)C2)C3)c2ccc(O)cc2)cc1 | 0.551 | 1.02 | inactive | 77 | 0.565 | 11000 | –
